Entries after “also recorded” stand apart in the source; their conditions may differ.
Experiments:
[1] = test system: BDNF promoter in primary hippocampal neuronal cells; experiment: BDNF promoter luciferase activity; type: cell-based, rat; conditions: dose response curve
From the text: Primary hippocampal cells: Rat primary neuron cultures for luciferase assays as well as westerns and all other cell cultured assays are described herein. Rat primary neuron cultures can be generated from embryonic day 18-21 rat embryo (male and female) brains (Sprague Dawley) following known protocols. Briefly, the cortices, together with hippocampi, can be dissected and cells can be dissociated with 0.25% trypsin (Invitrogen), treated with 0.05% DNase I (Roche). To remove alternative cells and RBC's, tissue slurry can be allowed to sediment by gravity for 30 minutes at room temperature. Lower cellular suspension can then be plated on poly-D-lysine-coated dishes in Neurobasal A medium (Invitrogen) with B27 supplement (Invitrogen), penicillin (PAA Laboratories, 100 U/ml), streptomycin (PAA Laboratories, 0.1 mg/ml), and 1 mM L-glutamine (PAA Laboratories). Mitotic inhibitor 5-fluoro-2′-deoxyuridine (Sigma) can be added to the medium (10 μM) at 2 days in vitro (DIV) to remove fibroblast and astrocyte contamination. To test isolation purity for neurons, markers for neurons (MAP2) specificity can be measured by gene and western analysis.
Nine distinct transcriptional initiation sites exist: eight in the 5′ noncoding exon and one preceding coding exon IX, indicating nine different promoters control BDNF transcription sites. […]

[2] = test system: PPARγ/δ targets; experiment: mRNA analyses of PPARγ/δ targets in 3T3-L1 adipocytes; type: cell-based; conditions: 10 μM
From the text: Compound 9 increased the gene expression of PPARγ targets MCAD, HSL, ATGL and adiponectin.

[3] = test system: H19-7 hippocampal cells; experiment: BDNF, post synaptic markers and spine formation in H19-7 hippocampal cells; type: cell-based
From the text: As shown in FIGS. 15A & B, reduced BDNF protein and gene expression is observed in db/db hippocampi which helps explain the observation that diabetes attenuates the expression of post synaptic receptor expression levels in db/db mice hippocampi.
As mentioned above, BDNF is known to induce synaptogenesis, spine density, and post synaptic receptor expression in neurons but has been previously shown to be reduced in AD brains.
The novel compounds (e.g., compound 9) have been developed as tools to better study the effects of PPARγ activation in the hippocampus upon cognition in AD.

[4] = Heart size (heart weight to body weight ratio); type: in vivo; conditions: 10 mg/kg oral daily for 1 month, wild type and db/db mice
Description: Diabetic db/db mice were fed a normal rodent chow diet. […] Mice were then weighed and their hearts were extracted and weighed. The heart weight of the mice compared to the body weight of the mice was then calculated based upon heart weight to body weight ratio.

[5] = test system: db/db mice; experiment: Y maze behavioral test, compound 9; type: in vivo; conditions: oral, 1 mg/kg
Description: Groups of mice can be subjected to Y-maze tests and object recognition tests (ORT) to determine the improvement of working and declarative memory. Briefly the Y-maze test involves the novel arm being blocked, so mice are allowed to explore the other two arms for 15 minutes. Appropriate external and internal cues are assigned for each arm. After 15 minute training sessions, the mice are caged in the same room for 4 hours (holding session) followed by the novel arm exploration where mice are allowed to explore the novel arm for […].

SMILES: Cc1ccc(CNCCCN(Cc2ccc(C(=O)O)cc2)Cc2cc(C(F)(F)F)cc(C(F)(F)F)c2)cc1 [Compound 9]
- BDNF promoter activity (luciferase) [1]: inducing
- Expression of genes associated with lipid accumulation and synthesis (FATP, CD36, DGAT) [2]: marginally induced
- Gene expression of PDK4 [2]: increased
- Gene expression of PPARγ targets MCAD, HSL, ATGL and adiponectin [2]: increased
- Post synaptic density marker PSD95 expression ([3]; H19-7 cells, western analysis): increase
- BDNF expression ([3]; H19 cells): increase
- Spine formation ([3]; H19 cells): promotes spine formation
- Heart size [4]: lacks increase in heart size; also recorded: decreased heart size
- Cognition in Y maze behavioral tests [5]: improves cognition
